Laboratory results: PubChem BioAssay AID248 (DTP/NCI, 2004)
Several values for one entry are separate records, joined by “and”; a condition that tells them apart may be missing. Identical values can stand only once. Toxic doses and inconclusive results are not listed. Rule as the data show it: active = T/C of 150% or more; inactive = T/C below 125%.

System: L1210 leukemia ip in BDF1 mice, survival T/C
Test: NCI In Vivo Anticancer Drug Screen. Data for tumor model L1210 Leukemia (intraperitoneal) in B6D2F1 (BDF1) mice
Details: endpoint: mean survival time, higher = longer survival
Outline: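 Tumor cells were implanted, animals were treated, and survival was followed. The result divides the treated measurement by the vehicle-control measurement.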

[1] = dose: 100.0 mg/kg/injection, schedule: Q04DX002 (ip), vehicle: Klucel (hydroxypropylcellulose) (HPC)
[2] = dose: 200.0 mg/kg/injection, schedule: Q04DX002 (ip), vehicle: Klucel (hydroxypropylcellulose) (HPC)
[3] = dose: 400.0 mg/kg/injection, schedule: Q04DX002 (ip), vehicle: Klucel (hydroxypropylcellulose) (HPC)
[4] = dose: 100.0 mg/kg/injection, schedule: Q01DX009 (ip), vehicle: saline with Tween-80
[5] = dose: 100.0 mg/kg/injection, schedule: Q04DX003 (ip), vehicle: saline with Tween-80
[6] = dose: 200.0 mg/kg/injection, schedule: Q01DX009 (ip), vehicle: saline with Tween-80
[7] = dose: 200.0 mg/kg/injection, schedule: Q04DX003 (ip), vehicle: saline with Tween-80
[8] = dose: 400.0 mg/kg/injection, schedule: Q01DX009 (ip), vehicle: saline with Tween-80
[9] = dose: 400.0 mg/kg/injection, schedule: Q04DX003 (ip), vehicle: saline with Tween-80
[10] = dose: 50.0 mg/kg/injection, schedule: Q01DX009 (ip), vehicle: saline with Tween-80
[11] = dose: 100.0 mg/kg/injection, schedule: Q04DX003 (ip), vehicle: Klucel (hydroxypropylcellulose) (HPC)
[12] = dose: 200.0 mg/kg/injection, schedule: Q04DX003 (ip), vehicle: Klucel (hydroxypropylcellulose) (HPC)
[13] = dose: 400.0 mg/kg/injection, schedule: Q04DX003 (ip), vehicle: Klucel (hydroxypropylcellulose) (HPC)
[14] = dose: 100.0 mg/kg/injection, schedule: Q04DX003 (ip), vehicle: saline

Measured: T/C

Cc1cc(C)cc(-n2cccc2C(=O)O)c1
inactive: [1] 89 % of control | [2] 86 % of control | [3] 96 % of control

O=NN1CCC1
inactive: dose: 100.0 mg/kg/injection, schedule: Q01DX001 (ip), vehicle: saline 97 % of control | dose: 200.0 mg/kg/injection, schedule: Q01DX001 (ip), vehicle: saline 93 % of control | dose: 400.0 mg/kg/injection, schedule: Q01DX001 (ip), vehicle: saline 93 % of control

Cc1ccc(C2(C#N)CCCCC2)cc1
inactive: [4] 96 % of control | [5] 108 % of control | [6] 110 % of control | [7] 98 % of control | [8] 110 % of control | [9] 101 % of control

Nc1ccnc(Cl)c1N
inactive: [10] 111 % of control | dose: 50.0 mg/kg/injection, schedule: Q04DX003 (ip), vehicle: saline with Tween-80 97 % of control | [4] 111 % of control | [5] 101 % of control | [6] 109 % of control | [7] 95 % of control

CC(Cl)CN(CC(C)Cl)c1ccc(S(=O)(=O)Nc2ncccn2)cc1 (stereo not drawn)
inactive: dose: 5.0 mg/kg/injection, schedule: Q01DX009 (ip), vehicle: gum acacia 107 % of control | dose: 5.0 mg/kg/injection, schedule: Q01DX009 (ip), vehicle: saline 104 % of control | dose: 8.0 mg/kg/injection, schedule: Q01DX009 (ip), vehicle: gum acacia 100 % of control | dose: 10.0 mg/kg/injection, schedule: Q01DX009 (ip), vehicle: saline 98 % of control | dose: 12.0 mg/kg/injection, schedule: Q01DX009 (ip), vehicle: gum acacia 96 % of control | dose: 20.0 mg/kg/injection, schedule: Q01DX009 (ip), vehicle: saline 105 % of control | dose: 30.0 mg/kg/injection, schedule: Q01DX009 (ip), vehicle: saline 111 % of control | dose: 45.0 mg/kg/injection, schedule: Q01DX009 (ip), vehicle: saline 114 % of control and 117 % of control | dose: 80.0 mg/kg/injection, schedule: Q01DX009 (ip), vehicle: other 122 % of control | dose: 80.0 mg/kg/injection, schedule: Q01DX009 (ip), vehicle: saline with Tween-80 123 % of control | dose: 80.0 mg/kg/injection, schedule: Q01DX009 (ip), vehicle: saline 106 % of control and 108 % of control | dose: 90.0 mg/kg/injection, schedule: Q01DX009 (ip), vehicle: saline 120 % of control | dose: 120.0 mg/kg/injection, schedule: Q01DX009 (ip), vehicle: other 121 % of control | dose: 120.0 mg/kg/injection, schedule: Q01DX009 (ip), vehicle: saline 111 % of control | dose: 180.0 mg/kg/injection, schedule: Q01DX009 (ip), vehicle: other 98 % of control

C1CCC2[N-]CC3CCCCC3[N-]CC3CCCCC3[N-]CC3CCCCC3[N-]CC2C1.[Cu+2].[O-][Cl+3]([O-])([O-])O (stereo not drawn)
inactive: dose: 12.5 mg/kg/injection, schedule: Q04DX002 (ip), vehicle: Klucel (hydroxypropylcellulose) (HPC) 111 % of control | dose: 25.0 mg/kg/injection, schedule: Q04DX002 (ip), vehicle: Klucel (hydroxypropylcellulose) (HPC) 108 % of control | dose: 50.0 mg/kg/injection, schedule: Q04DX002 (ip), vehicle: Klucel (hydroxypropylcellulose) (HPC) 108 % of control

O=C(Cl)c1ccc(N2C(=O)c3ccccc3C2=O)cc1[N+](=O)[O-]
inactive: [4] 98 % of control | [5] 102 % of control | [6] 97 % of control | [7] 98 % of control | [8] 106 % of control | [9] 100 % of control

O=[N+]([O-])c1ccc(NN(c2ccccc2)c2ccccc2)c([N+](=O)[O-])c1
inactive: [11] 98 % of control | [12] 97 % of control | [13] 90 % of control

CCNC(C)C
inactive: dose: 25.0 mg/kg/injection, schedule: Q01DX009 (ip), vehicle: saline 98 % of control | dose: 25.0 mg/kg/injection, schedule: Q04DX003 (ip), vehicle: saline 92 % of control | dose: 50.0 mg/kg/injection, schedule: Q01DX009 (ip), vehicle: saline 93 % of control | dose: 50.0 mg/kg/injection, schedule: Q04DX003 (ip), vehicle: saline 97 % of control | dose: 100.0 mg/kg/injection, schedule: Q01DX009 (ip), vehicle: saline 98 % of control | [14] 95 % of control and 107 % of control

COc1ccc2c(O)coc2c1
inactive: dose: 100.0 mg/kg/injection, schedule: Q01DX009 (ip), vehicle: Klucel (hydroxypropylcellulose) (HPC) 100 % of control | [11] 104 % of control | dose: 200.0 mg/kg/injection, schedule: Q01DX009 (ip), vehicle: Klucel (hydroxypropylcellulose) (HPC) 101 % of control | [12] 102 % of control | dose: 400.0 mg/kg/injection, schedule: Q01DX009 (ip), vehicle: Klucel (hydroxypropylcellulose) (HPC) 96 % of control | [13] 93 % of control

Cc1no[n+]([O-])c1C(=O)NN
inactive: [1] 106 % of control | [2] 91 % of control | [3] 95 % of control

O=C(CNC(=O)c1ccccc1)N/N=C\c1c[nH]c2ccccc12
inactive: [4] 97 % of control | [6] 99 % of control | [8] 100 % of control

OCC1OC(n2c3ccccc3c3ccccc32)C(O)C(O)C1O (stereo not drawn)
inactive: dose: 60.0 mg/kg/injection, schedule: Q04DX002 (ip), vehicle: DMSO 108 % of control | dose: 120.0 mg/kg/injection, schedule: Q04DX002 (ip), vehicle: DMSO 102 % of control

CCCCCCCCCCCCCCCCCCOc1ccc(Cl)cc1Cl
inactive: dose: 100.0 mg/kg/injection, schedule: Q04DX002 (ip), vehicle: other 98 % of control | dose: 200.0 mg/kg/injection, schedule: Q04DX002 (ip), vehicle: other 102 % of control | dose: 400.0 mg/kg/injection, schedule: Q04DX002 (ip), vehicle: other 102 % of control

N#C/C(=C\c1cccn1Cc1cc2ccccc2c2ccccc12)C(N)=O
inactive: dose: 25.0 mg/kg/injection, schedule: Q04DX002 (ip), vehicle: saline 105 % of control | dose: 50.0 mg/kg/injection, schedule: Q04DX002 (ip), vehicle: saline 108 % of control | dose: 100.0 mg/kg/injection, schedule: Q04DX002 (ip), vehicle: saline 119 % of control

COc1ccc(N=Cc2ccccc2O)cc1.[Co]
inactive: dose: 100.0 mg/kg/injection, schedule: Q01DX001 (ip), vehicle: other 96 % of control | dose: 200.0 mg/kg/injection, schedule: Q01DX001 (ip), vehicle: other 102 % of control | dose: 400.0 mg/kg/injection, schedule: Q01DX001 (ip), vehicle: other 105 % of control

NC(N)=N/N=C/c1c2ccccc2cc2ccccc12
inactive: dose: 15.0 mg/kg/injection, schedule: Q01DX Z (ip), vehicle: carboxymethylcellulose (CMC) 101 % of control | dose: 30.0 mg/kg/injection, schedule: Q01DX Z (ip), vehicle: carboxymethylcellulose (CMC) 101 % of control | dose: 240.0 mg/kg/injection, schedule: Q01DX Z (oral), vehicle: carboxymethylcellulose (CMC) 104 % of control

Nc1ccc(/C=C\C(=O)NCc2cccnc2)cc1
inactive: dose: 25.0 mg/kg/injection, schedule: Q01DX009 (ip), vehicle: saline with Tween-80 109 % of control | [10] 102 % of control | [4] 93 % of control and 90 % of control

O=C(COc1cccc(Cl)c1)Nc1ccc(C(=O)CCl)cc1
inactive: dose: 100.0 mg/kg/injection, schedule: Q01DX001 (ip), vehicle: gum acacia 90 % of control | dose: 200.0 mg/kg/injection, schedule: Q01DX001 (ip), vehicle: gum acacia 100 % of control | dose: 400.0 mg/kg/injection, schedule: Q01DX001 (ip), vehicle: gum acacia 99 % of control

CCC(=O)c1cc(O)ccc1O
inactive: dose: 100.0 mg/kg/injection, schedule: Q04DX003 (ip), vehicle: other 93 % of control | dose: 200.0 mg/kg/injection, schedule: Q04DX003 (ip), vehicle: other 98 % of control

c1ccc(SCN2CCN(CSc3ccccc3)CC2)cc1
inactive: [14] 101 % of control | dose: 200.0 mg/kg/injection, schedule: Q04DX003 (ip), vehicle: saline 101 % of control | dose: 400.0 mg/kg/injection, schedule: Q04DX003 (ip), vehicle: saline 98 % of control
